Each structure is given as a SMILES string. Structures can show the parent of a compound that is named as a salt.

recombinant human S1P1, sequence (P21453 whole entry): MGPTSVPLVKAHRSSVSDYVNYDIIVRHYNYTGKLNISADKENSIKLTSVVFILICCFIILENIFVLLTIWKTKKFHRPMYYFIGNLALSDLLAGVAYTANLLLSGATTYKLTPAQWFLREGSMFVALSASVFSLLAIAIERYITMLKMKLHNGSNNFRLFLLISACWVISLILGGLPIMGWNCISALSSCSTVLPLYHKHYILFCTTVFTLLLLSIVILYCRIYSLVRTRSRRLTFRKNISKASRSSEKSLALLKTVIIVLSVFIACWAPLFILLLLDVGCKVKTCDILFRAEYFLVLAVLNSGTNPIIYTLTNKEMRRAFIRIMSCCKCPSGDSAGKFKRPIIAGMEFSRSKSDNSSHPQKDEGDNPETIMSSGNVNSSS

One assay concerns the target recombinant human S1P1 (Homo sapiens (Human), UniProt P21453). Nature of the assay: [32P]S1P competitive binding assay on cell membranes. To be noted: competition against [32P]S1P, membranes with recombinant human S1P1, mean ± SD; listed as TZ-43-77; read-out: S1P1 IC50 ± SD.
Description: Competitive binding was performed for 60 min at room temperature and terminated by collecting the membranes onto 96-well glass fiber (GF/B) filtration plates (Millipore, Billerica, Mass.). Each filter was washed with 200 μL of assay buffer for five times. The filter bound radionuclide was measured by a Beckman LS3801 scintillation counter using Cherenkov counting. The reported IC50 values were calculated using the 4 parameter equation, least-square non-linear regression curve-fit, with GraphPad Prism software (GraphPad Software, Inc). Each assay was repeated at least three times with duplicate wells for each compound; the reported values (mean±SD, nM) are calculated from the average of all assays.
Turning to `NC(=O)c1ccc(-c2noc(-c3ccc(OCCF)c(C(F)(F)F)c3)n2)cc1` [Compound 19b, 4-(5-(4-(2-Fluoroethoxy)-3-(trifluoromethyl)phenyl)-1,2,4-oxadiazol-3-yl)benzamide], the concentration for half-maximal inhibition (IC50) came out at 67 ± 12.6 nM.

Still in this assay, the particulars now being: competition against [32P]S1P, membranes with recombinant human S1P1, mean ± SD; listed as TZ-43-102; read-out: S1P1 IC50 ± SD.
As for `CS(=O)(=O)NCc1ccc(-c2noc(-c3ccc(OCCF)c(C(F)(F)F)c3)n2)cc1` [Compound 19c, N-(4-(5-(4-(2-Fluoroethoxy)-3-(trifluoromethyl)phenyl)-1,2,4-oxadiazol-3-yl)benzyl)methanesulfonamide], the IC50 was 40 ± 17.8 nM.

Still in this assay, the particulars now being: competition against [32P]S1P, membranes with recombinant human S1P1, mean ± SD; listed as TZ-48-16; read-out: S1P1 IC50 ± SD.
For `OCC1CN(Cc2ccc(-c3noc(-c4ccc(OCCF)c(C(F)(F)F)c4)n3)cc2)C1` [Compound 10b], the concentration for half-maximal inhibition (IC50) was 125 ± 27 nM.

The same assay, now with this note: competition against [32P]S1P, membranes with recombinant human S1P1, mean ± SD; read-out: S1P1 IC50 ± SD.
As to `O=C(O)C1CCN(c2ccc3oc(-c4ccc(-c5ccc(OCCF)cc5)c(C(F)(F)F)c4)nc3c2)CC1` [TZ-31-56], the IC50 is 114 ± 72.6 nM.
The same measure, in the same setting: the same measure for `O=C(NCCO)c1ccc(-c2noc(-c3ccc(OCCF)c(C(F)(F)F)c3)n2)cc1` [TZ-43-143]: 45.4 ± 10.2 nM; for `O=C(O)C1CCN(c2ccc3oc(-c4ccc(-c5ccc(F)cc5)c(C(F)(F)F)c4)nc3c2)CC1` [TZ-31-72]: 498 ± 334 nM; for `OCCOCCOCCOCc1ccc(-c2noc(-c3ccc(OCCF)c(C(F)(F)F)c3)n2)cc1` [Compound 12c]: 106 nM.
The same measure, in the same setting: the same measure for `CCOc1cc(-c2nc(-c3ccncc3)no2)ccc1OCCF` [TZ-14-50]: 182 ± 75.3 nM; for `OCc1ccc(-c2noc(-c3ccc(OCCCF)c(C(F)(F)F)c3)n2)cc1` [TZ-48-24]: 18.4 ± 3.2 nM.
Regarding `OCCNCCOCc1ccc(-c2noc(-c3ccc(OCCF)c(C(F)(F)F)c3)n2)cc1` [Compound 12f], the IC50 stood at 75.6 nM.
Still for that read-out and setting: the same measure for `NCc1ccc(-c2noc(-c3ccc(OCCF)c(C(F)(F)F)c3)n2)cc1` [Compound 31a, (4-(5-(4-(2-Fluoroethoxy)-3-(trifluoromethyl)phenyl)-1,2,4-oxadiazol-3-Ophenyl)methanamine hydrochloride]: 34.2 ± 7.1 nM; for `CN(CCO)CCOCc1ccc(-c2noc(-c3ccc(OCCF)c(C(F)(F)F)c3)n2)cc1` [Compound 12g]: 130 nM.
Consider `O=C(O)C1CCN(c2ccc3oc(-c4ccc(-c5ccc(F)cc5)c(C(F)(F)F)c4)nc3c2)CC1` [TZ-31-39], for which the IC50 came out at 486 ± 69 nM.
The same measure, in the same setting: then `O=C(O)C1CCN(c2ccc(-c3noc(-c4ccc(OCCF)c(C(F)(F)F)c4)n3)cc2)CC1` [TZ-43-107], with 102 ± 40 nM.
As for `O=C(NO)c1ccc(-c2noc(-c3ccc(OCCF)c(C(F)(F)F)c3)n2)cc1` [Compound 20b, 4-(5-(4-(2-Fluoroethoxy)-3-(trifluoromethyl)phenyl)-1,2,4-oxadiazol-3-yl)-N-hydroxybenzamide], the IC50 is 272 ± 65 nM.
Take `O=C(O)c1ccc(-c2ccc3oc(-c4ccc(-c5ccc(F)cc5)c(C(F)(F)F)c4)nc3c2)s1` [TZ-31-85]: the half-maximal inhibitory concentration (IC50) was found to be 334 ± 58.8 nM.
Still for that read-out and setting: the same measure for `O=C(O)C1CN(Cc2ccc3oc(-c4ccc(-c5ccc(OCCF)nc5)c(C(F)(F)F)c4)nc3c2)C1` [TZ-35-139]: 76.4 ± 21.6 nM.
`O=C(O)C1CCN(c2ccc3oc(-c4ccc(-c5ccccc5OCCF)c(C(F)(F)F)c4)nc3c2)CC1` [TZ-31-53]: the half-maximal inhibitory concentration (IC50) was found to be 894 ± 367 nM.
For the compound `CN(CCO)Cc1ccc(-c2noc(-c3ccc(OCCF)c(C(F)(F)F)c3)n2)cc1` [Compound 8f, 2-((4-(5-(4-(2-Fluoroethoxy)-3-(trifluoromethyl)phenyl)-1,2,4-oxadiazol-3-yl)benzyl)(methyl)amino)ethan-1-ol], the half-inhibitory concentration (IC50) turned out to be 48.2 nM.
Take `OCC(CO)NCc1ccc(-c2noc(-c3ccc(OCCF)c(C(F)(F)F)c3)n2)cc1` [Compound 10a, 2-((4-(5-(4-(2-Fluoroethoxy)-3-(trifluoromethyl)phenyl)-1,2,4-oxadiazol-3-yl)benzyl)amino)propane-1,3-diol]: the IC50 turned out to be 87.2 ± 17.7 nM.
Still for that read-out and setting: then `COc1cccc(-c2ccc(-c3nc4cc(N5CCC(C(=O)O)CC5)ccc4o3)cc2C(F)(F)F)c1` [TZ-31-120], with 95.7 ± 25.1 nM.
In the case of `CN(CCC(=O)O)Cc1ccc(-c2noc(-c3ccc(-c4ccccc4OCCF)c(C(F)(F)F)c3)n2)cc1F` [TZ-33-37], the IC50 came out at 75.3 ± 20.9 nM.
In the case of `OCCOCCOCCOCCOCc1ccc(-c2noc(-c3ccc(OCCF)c(C(F)(F)F)c3)n2)cc1` [Compound 12d, 1-(4-(5-(4-(2-Fluoroethoxy)-3-(trifluoromethyl)phenyl)-1,2,4-oxadiazol-3-yl)phenyl)-2,5,8,11-tetraoxatridecan-13-ol], the IC50 was 125 ± 22 nM.
Same read-out and setting: the same measure for `FCCOc1ccc(-c2nc(-c3ccc(CNCc4nnn[nH]4)cc3)no2)cc1C(F)(F)F` [TZ-35-126]: 509 ± 167 nM; for `[N-]=[N+]=NCc1ccc(-c2noc(-c3ccc(OCCF)c(C(F)(F)F)c3)n2)cc1` [TZ-43-91]: 7.4 ± 1.8 nM.
With `OCC(O)c1ccc(-c2noc(-c3ccc(OCCF)c(C(F)(F)F)c3)n2)cc1` (stereo not shown) [Compound 8k], the 50% inhibitory concentration (IC50) is 23.8 nM.
With `Cc1ccccc1-c1ccc(-c2nc(-c3ccc(CN(CCF)CCC(=O)O)c(F)c3)no2)cc1C(F)(F)F` [TZ-43-57], the half-maximal inhibitory concentration (IC50) is 41.7 ± 9.45 nM.
Still for that read-out and setting: the same measure for `O=C(O)C1CN(c2cccc(-c3noc(-c4ccc(OCCF)c(C(F)(F)F)c4)n3)c2)C1` [TZ-48-10]: above 1000 nM; for `N#Cc1cc(-c2nc(-c3ccc(CO)cc3)no2)ccc1OCCF` [Compound 8b]: 15.4 ± 3.8 nM; for `O=C(O)C1CCN(c2cccc(-c3noc(-c4ccc(OCCF)c(C(F)(F)F)c4)n3)c2)CC1` [TZ-43-117]: 72.9 ± 11.2 nM.
Still for that read-out and setting: then `COc1ccc(-c2nc(-c3ccc(CN4CC(C(=O)O)C4)cc3)no2)cc1C(F)(F)F` [TZ-43-26], with 103 ± 20.9 nM; and `OCc1ccc(-c2noc(-c3ccc(OCCF)cc3)n2)cc1` [Compound 8a, (4-(5-(4-(2-Fluoroethoxy)phenyl)-1,2,4-oxadiazol-3-yl)phenyl)methanol], with above 1000 nM.
On the same count and under the same terms, then `COc1ccc(-c2nc(-c3ccc(CO)cc3)no2)cc1C(F)(F)F` [TZ-43-18], with 53.7 ± 15.8 nM.
Take `O=C(O)c1ccc(-c2noc(-c3ccc(OCCF)c(C(F)(F)F)c3)n2)cc1` [Compound 20a, 4-(5-(4-(2-Fluoroethoxy)-3-(trifluoromethyl)phenyl)-1,2,4-oxadiazol-3-yl)benzoic acid]: the half-inhibitory concentration (IC50) is above 1000 nM.
On the same count and under the same terms, the same measure for `O=C(O)C1CN(Cc2ccc3oc(-c4ccc(-c5ccc(F)nc5)c(C(F)(F)F)c4)nc3c2)C1` [TZ-35-73]: 92.7 ± 35.3 nM.
Consider `OCCNCc1ccc(-c2noc(-c3ccc(OCCF)c(C(F)(F)F)c3)n2)cc1` [Compound 8e], for which the IC50 is 59.6 nM.
As for `CN(Cc1ccc(-c2noc(-c3ccc(OCCF)c(C(F)(F)F)c3)n2)cc1)CC(O)CO` (stereo not shown) [Compound 8g], the IC50 was determined as 38 nM.

Staying with this assay, now noted: read-out: S1P1 IC50 ± SD.
Take `O=C(O)c1cn(Cc2ccc(-c3noc(-c4ccc(OCCF)c(C(F)(F)F)c4)n3)cc2)nn1` [Compound 22a, 1-(4-(5-(4-(2-Fluoroethoxy)-3-(trifluoromethyl)phenyl)-1,2,4-oxadiazol-3-yl)benzyl)-1H-1,2,3-triazole-4-carbox-ylic acid]: the IC50 stood at 341 nM.
The same measure, in the same setting: the same measure for `OCC1CN(Cc2ccc(-c3noc(-c4ccc(OCCF)c(C(F)(F)F)c4)n3)cc2)C1` [Compound 10b]: above 100 nM.

The assay is the same for the next values; noted with them: vs 8c.
Turning to `OCC(O)c1ccc(-c2noc(-c3ccc(OCCF)c(C(F)(F)F)c3)n2)cc1` (stereo not shown) [Compound 8k], the “Fold decrease of S1P1 binding potency compared to 8c” value is 4 fold.
`N#Cc1cc(-c2nc(-c3ccc(CO)cc3)no2)ccc1OCCF` [Compound 8b]: the “Fold decrease of S1P1 binding potency compared to 8c” value worked out at 2 fold.

The same assay, now with this note: vs 19b.
Consider `O=C(NO)c1ccc(-c2noc(-c3ccc(OCCF)c(C(F)(F)F)c3)n2)cc1` [Compound 20b, 4-(5-(4-(2-Fluoroethoxy)-3-(trifluoromethyl)phenyl)-1,2,4-oxadiazol-3-yl)-N-hydroxybenzamide], for which the “Fold increased S1P1 IC50 compared to 19b” value worked out at 4 fold.

The assay is the same for the next values; noted with them: vs compound 4 (2.6 nM).
Regarding `O=C(O)c1cn(Cc2ccc(-c3noc(-c4ccc(OCCF)c(C(F)(F)F)c4)n3)cc2)nn1` [Compound 22a, 1-(4-(5-(4-(2-Fluoroethoxy)-3-(trifluoromethyl)phenyl)-1,2,4-oxadiazol-3-yl)benzyl)-1H-1,2,3-triazole-4-carbox-ylic acid], the “Fold increased S1P1 IC50 compared to compound 4” value is reported as 130 fold.

The record behind these values is patent US10676467B2 (Washington University, priority 2017, dated 2020).
